Measurements published in US12060351B2, “Thiadiazole IRAK4 inhibitors” (Gilead Sciences, Inc., priority 2018, dated 2024).
Read-outs that look alike come from different tables or passages of the source. One block for each molecule: values may come before it.

Experiments:
[1] = tested on: TNFα; experiment: IRAK4 Monocyte TNFα Cell Based Assay (LPS-stimulated, TR-FRET TNFα detection); set-up: species or system human; details: Homo sapiens, Monocyte, read-out: EC50 MONO TNF HTRF
In short: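 Monocytes (5,000 cells/well) treated with compound (0.1% DMSO) for 1 hour at 37° C, then stimulated with 50 pg/ml LPS for 4 hours. TNFα in medium quantified by TR-FRET two-antibody detection after overnight room-temperature incubation. Percent of control calculated against unstimulated (0%) and LPS-stimulated (100%) cells.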

[2] = target: T1, IRAK4 enzyme (Homo sapiens, UniProt Q9NWZ3); experiment: IRAK4 Biochemical Assay (TR-FRET, STK1 KinEASE); details: 500 μM ATP, Table 2 second part (compounds 33-343), read-out: IC50 IRAK4-HTBS
T1 construct: purchased Carna Biosciences, Chuo-ku, Kobe, Japan
T1 sequence (Q9NWZ3 1-460): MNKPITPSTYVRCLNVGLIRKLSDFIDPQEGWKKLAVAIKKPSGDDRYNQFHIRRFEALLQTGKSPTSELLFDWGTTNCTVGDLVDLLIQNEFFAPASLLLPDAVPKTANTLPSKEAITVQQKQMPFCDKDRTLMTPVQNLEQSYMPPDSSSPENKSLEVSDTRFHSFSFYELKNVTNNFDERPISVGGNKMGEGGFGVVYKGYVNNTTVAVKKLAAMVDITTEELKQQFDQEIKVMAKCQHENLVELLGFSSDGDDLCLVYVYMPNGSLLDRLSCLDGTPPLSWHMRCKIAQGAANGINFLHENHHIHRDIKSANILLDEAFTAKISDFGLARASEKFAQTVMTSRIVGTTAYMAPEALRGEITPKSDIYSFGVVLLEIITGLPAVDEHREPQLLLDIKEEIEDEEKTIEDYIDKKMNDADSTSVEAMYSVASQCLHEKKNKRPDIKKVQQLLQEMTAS
In short: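 Human IRAK4 (0.75 nM) preincubated 15 min with compound and 2 μM STK1 peptide, then reacted 120 min at room temperature with 500 μM ATP in HEPES pH 7.0 buffer with MgCl2 and DTT. EDTA stop with Cryptate anti-phosphopeptide antibody and tracer, 60 min; TR-FRET read as 665/615 nm ratio.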

[3] = human monocytes, LPS-stimulated, Table 2 second part (compounds 33-343)

Compound: CC(=O)N[C@H]1CC[C@H](c2nnc(-c3cnc(-c4ccc5cc(C#N)cnn45)cc3NC34CCC(O)(CC3)CC4)s2)CC1 [Compound 241, N-((1r,4r)-4-(5-(6-(3-cyanopyrrolo[1,2-b]pyridazin-7-yl)-4-((4-hydroxybicyclo[2.2.2]octan-1-yl)amino)pyridin-3-yl)-1,3,4-thiadiazol-2-yl)cyclohexyl)acctamide]
EC50 [1, 3]: 4.8 nM
IC50 [2]: 1.39 nM

Compound: COC(=O)NC[C@H]1C[C@H](Nc2cc(-c3ccc4cc(C#N)cnn34)ncc2-c2nnc(N3CCN4CCOC[C@H]4C3)s2)C1 [Example 51, methyl (((1R,3r)-3-((2-(3-cyanopyrrolo[1,2-b]pyridazin-7-yl)-5-(5-((R)-hexahydropyrazino[2,1-c][1,4]oxazin-8(1H)-yl)-1,3,4-thiadiazol-2-yl)pyridin-4-yl)amino)cyclobutyl)methyl)carbamate]
EC50 [1, 3]: 4.7 nM
IC50 [2]: 1.73 nM

Compound: CC(=O)N[C@@H]1[C@@H]2CC[C@H]1CN(c1nnc(-c3cnc(-c4ccc5cc(C#N)cnn45)cc3NC3(C)COC3)s1)C2 [Example 144, N-((1R,5S,8s)-3-(5-(6-(3-cyanopyrrolo[1,2-b]pyridazin-7-yl)-4-((3-methyloxetan-3-yl)amino)pyridin-3-yl)-1,3,4-thiadiazol-2-yl)-3-azabicyclo[3.2.1]octan-8-yl)acetamide]
EC50 [1, 3]: 2.3 nM
IC50 [2]: 0.63 nM

Compound: CC(=O)N[C@@H]1[C@@H]2C[C@H]1CN(c1nnc(-c3cnc(-c4ccc5cc(C#N)cnn45)cc3N[C@H](C)C#N)s1)C2 [Example 174, N-((1R,5S,6S)-3-(5-(4-(((R)-1-cyanoethyl)amino)-6-(3-cyanopyrrolo[1,2-b]pyridazin-7-yl)pyridin-3-yl)-1,3,4-thiadiazol-2-yl)-3-azabicyclo[3.1.1]heptan-6-yl)acctamide]
EC50 [1]: 3.5 nM
IC50 [2]: 0.49 nM

Compound: N#Cc1cnn2c(-c3cc(NC4CCOCC4)c(-c4nnc([C@H]5CC[C@H](NC(=O)C6CC6)CC5)s4)cn3)ccc2c1 [Example 156, N-((1r,4r)-4-(5-(6-(3-cyanopyrrolo[1,2-b]pyridazin-7-yl)-4-((tetrahydro-2H-pyran-4-yl)amino)pyridin-3-yl)-1,3,4-thiadiazol-2-yl)cyclohexyl)cyclopropanecarboxamide]
EC50 [1, 3]: 10.9 nM
IC50 [2]: 1.42 nM

Compound: CC1(Nc2cc(-c3ccc4cc(C#N)cnn34)ncc2-c2nnc(N3C[C@H]4CC[C@@H](C3)[C@H]4O)s2)COC1 [Example 149, 7-(5-(5-((1R,5S,8r)-8-hydroxy-3-azabicyclo[3.2.1]octan-3-yl)-1,3,4-thiadiazol-2-yl)-4-((3-methyloxetan-3-yl)amino)pyridin-2-yl)pyrrolo[1,2-b]pyridazine-3-carbonitrile]
EC50 [1, 3]: 4.9 nM
IC50 [2]: 0.31 nM

Compound: CC(=O)N[C@@H]1C[C@H]2CC[C@@H](C1)N2c1nnc(-c2cnc(-c3ccc4cc(C#N)cnn34)cc2NC(C)C)s1 [Example 56, N-((1R,3s,5S)-8-(5-(6-(3-cyanopyrrolo[1,2-b]pyridazin-7-yl)-4-(isopropylamino)pyridin-3-yl)-1,3,4-thiadiazol-2-yl)-8-azabicyclo[3.2.1]octan-3-yl)acetamide]
EC50 [1]: 8.3 nM
IC50 [2]: 0.49 nM

Compound: CC(=O)N[C@@H]1[C@@H]2C[C@H]1CN(c1nnc(-c3cnc(-c4ccc5cc(C#N)cnn45)cc3NC3(C)COC3)s1)C2 [Example 175, N-((1R,5S,6s)-3-(5-(6-(3-cyanopyrrolo[1,2-b]pyridazin-7-yl)-4-((3-methyloxetan-3-yl)amino)pyridin-3-yl)-1,3,4-thiadiazol-2-yl)-3-azabicyclo[3.1.1]heptan-6-yl)acetamide]
EC50 [1]: 9 nM
IC50 [2]: 0.57 nM

Compound: CC(=O)N[C@H]1CC[C@H](c2nnc(-c3cnc(-c4ccc5cc(C#N)cnn45)cc3N[C@H]3CCC[C@@H](O)C3)s2)CC1 [Compound 245, N-((1S,4r)-4-(5-(6-(3-cyanopyrrolo[1,2-b]pyridazin-7-yl)-4-(((1S,3R)-3-hydroxycyclohexyl)amino)pyridin-3-yl)-1,3,4-thiadiazol-2-yl)cyclohexyl)acetamide]
EC50 [1, 3]: 3.2 nM
IC50 [2]: 0.55 nM

Continued, values first:

EC50 [1, 3]: 858 nM
IC50 [2]: 1.12 nM
Compound: CC(C)Nc1cc(-c2ccc3cc(C#N)cnn23)ncc1-c1nnc(C(=O)N[C@H]2C[C@@](C)(O)C2)s1 [Example 218, 5-(6-(3-cyanopyrrolo[1,2-b]pyridazin-7-yl)-4-(isopropylamino)pyridin-3-yl)-N-((1s,3s)-3-hydroxy-3-methylcyclobutyl)-1,3,4-thiadiazole-2-carboxamide]

EC50 [1, 3]: 166 nM
IC50 [2]: 1.23 nM
Compound: CC(=O)N[C@H]1C[C@H](c2nnc(-c3cnc(-c4ccc5cc(C#N)cnn45)cc3NC3COC3)s2)C1 [Example 202, N-((1r,3r)-3-(5-(6-(3-cyanopyrrolo[1,2-b]pyridazin-7-yl)-4-(oxctan-3-ylamino)pyridin-3-yl)-1,3,4-thiadiazol-2-yl)cyclobutyl)acetamide]

EC50 [1, 3]: 19.8 nM
IC50 [2]: 1.15 nM
Compound: CC1(Nc2cc(-c3ccc4cc(C#N)cnn34)ncc2-c2nnc([C@H]3CC[C@H](NC(=O)C4CC4)CC3)s2)COC1 [Example 158, N-((1r,4r)-4-(5-(6-(3-cyanopyrrolo[1,2-b]pyridazin-7-yl)-4-((3-methyloxetan-3-yl)amino)pyridin-3-yl)-1,3,4-thiadiazol-2-yl)cyclohexyl)cyclopropanecarboxamide]

EC50 [1, 3]: 39.1 nM
IC50 [2]: 1.15 nM
Compound: CC(=O)N[C@H]1[C@@H]2CCC[C@H]1CN(c1nnc(-c3cnc(-c4ccc5cc(C#N)cnn45)cc3NC(C)C)s1)C2 [Example 165, N-((1R,5S,9r)-3-(5-(6-(3-cyanopyrrolo[1,2-b]pyridazin-7-yl)-4-(isopropylamino)pyridin-3-yl)-1,3,4-thiadiazol-2-yl)-3-lazabicyclo[3.3.1]nonan-9-yl)acetamide]

EC50 [1, 3]: 3100 nM
IC50 [2]: 0.7 nM
Compound: CC(C)Nc1cc(-c2ccc3cc(C#N)cnn23)ncc1-c1nnc(C(=O)N[C@H]2C[C@@H](O)C2)s1 [Example 215, 5-(6-(3-cyanopyrrolo[1,2-b]pyridazin-7-yl)-4-(isopropylamino)pyridin-3-yl)-N-((1s,3s)-3-hydroxycyclobutyl)-1,3,4-thiadiazole-2-carboxamide]

EC50 [1, 3]: 5.9 nM
IC50 [2]: 1.78 nM
Compound: CC(C)Nc1cc(-c2ccc3cc(C#N)cnn23)ncc1-c1nnc(N2C[C@H]3CC[C@@H](C2)[C@@H]3NC(=O)[C@H]2C[C@@](C)(O)C2)s1 [Example 93, (1s,3S)-N-((1R,5S,8s)-3-(5-(6-(3-cyanopyrrolo[1,2-b]pyridazin-7-yl)-4-(isopropylamino)pyridin-3-yl)-1,3,4-thiadiazol-2-yl)-3-azabicyclo[3.2.1]octan-8-yl)-3-hydroxy-3-methylcyclobutane-1-carboxamide]

EC50 [1, 3]: 2.8 nM
IC50 [2]: 0.52 nM
Compound: C[C@H](C#N)Nc1cc(-c2ccc3cc(C#N)cnn23)ncc1-c1nnc([C@H]2CC[C@H](NC(=O)C3CC3)CC2)s1 [Example 160, N-((1R,4r)-4-(5-(4-(((R)-1-cyanoethyl)amino)-6-(3-cyanopyrrolo[1,2-b]pyridazin-7-yl)pyridin-3-yl)-1,3,4-thiadiazol-2-yl)cyclohexyl)cyclopropanecarboxamide]

EC50 [1, 3]: 4770 nM
IC50 [2]: 1.12 nM
Compound: CC(C)Nc1cc(-c2ccc3cc(C#N)cnn23)ncc1-c1nnc(C(=O)N[C@H]2CC[C@@H](O)CC2)s1 [Example 224, 5-(6-(3-cyanopyrrolo[1,2-b]pyridazin-7-yl)-4-(isopropylamino)pyridin-3-yl)-N-((1s,4s)-4-hydroxycyclohexyl)-1,3,4-thiadiazole-2-carboxamide]

EC50 [1, 3]: 18.4 nM
IC50 [2]: 1.85 nM
Compound: CC(C)Nc1cc(-c2ccc3cc(C#N)cnn23)ncc1-c1nnc(N2C[C@H]3CC[C@@H](C2)[C@@H]3Nc2ncccn2)s1 [Compound 308, 7-(4-(isopropylamino)-5-(5-((1R,5S,8s)-8-(pyrimidin-2-ylamino)-3-azabicyclo[3.2.1]octan-3-yl)-1,3,4-thiadiazol-2-yl)pyridin-2-yl)pyrrolo[1,2-b]pyridazine-3-carbonitrile]

EC50 [1, 3]: 3.3 nM
IC50 [2]: 1.04 nM
Compound: CC(C)Nc1cc(-c2ccc3cc(C#N)cnn23)ncc1-c1nnc(N2C[C@H]3CC[C@@H](C2)[C@@H]3NC(=O)C(C)(C)O)s1 [Example 85, N-((1R,5S,8s)-3-(5-(6-(3-cyanopyrrolo[1,2-b]pyridazin-7-yl)-4-(isopropylamino)pyridin-3-yl)-1,3,4-thiadiazol-2-yl)-3-azabicyclo[3.2.1]octan-8-yl)-2-hydroxy-2-methylpropanamide]

EC50 [1, 3]: 21.4 nM
IC50 [2]: 0.24 nM
Compound: CC(=O)NC[C@H]1C[C@@H](c2nnc(-c3cnc(-c4ccc5cc(C#N)cnn45)cc3NC(C)C)s2)C1 [Compound 289, N-(((1s,3s)-3-(5-(6-(3-cyanopyrrolo[1,2-b]pyridazin-7-yl)-4-(isopropylamino)pyridin-3-yl)-1,3,4-thiadiazol-2-yl)cyclobutyl)methyl)acetamide]
